Test results as given in patent US20180228897A1, “Compositions for Vapor Phase Delivery of Active Compounds, Methods of Making and Using Same, and Kits Comprising Same” (Atmovita, LLC, priority 2015, published 2018).
Where two headings read alike, the source gives them in different places. One block for each molecule: values may come before it. Peptide text beside a SMILES is read from it. * marks the point of attachment. PhAc = O=C(Cc1ccccc1)*

Columns and labels:
Format in all cases: physicochemical
[1] = Preparation of compositions (Example 3): appearance and stability of the solution
[2] = Trans resveratrol solubility in stock with solvents and co-solutes (incremental addition, heat gun)
Method: The initial approach was to test non polar solvents and their effectiveness with ethanol. This included pure stock as a control, carvone, and combinations of those solvents with ethanol. The following solvents were prepared: Control—3.5 ml of pure stock, 1-1.75 ml of stock+1.75 ml of carvone+0.2 ml of 0.01 mol NaOH, 2-3.5 ml of pure carvone, 3-3 ml of stock+0.5 ml of ethanol, 4-3 ml of carvone+0.5 ml of ethanol.
Solution 1 became biphasic and cloudy. The control and solution 4 have approximately the same solubility of TR. […] Solvent was added until the TR was dissolved which occurred at 60 mg/ml of stock. This original solution was split into 5 test tubes of 1 ml each with about 0.06 g of TR.
The following solutions were made: 1—adding […] of carvone (equimolar with TR, 0.000263 mol of each) 2—adding 0.175 ml of ethanol 3-0.235 ml of carvone and 0.1 ml of ethanol. Solution 1 became cloudy because the carvone is immiscible with the stock. Several attempts to fix this were made using of ethanol and B3 amide as hydrotropes but it had no effect.
Next co-solutes were used along with the TR in stock solution. 0.000263 mol of the following were dissolved along with TR in 3 ml stock: 1-niacin, 2-caffeine, 3-gallic acid, 4-salicylic acid, 5-thiamine, 6-niacinamide, and 7-pantothenic acid. Two additional samples were prepared of 0.01 g biotin (8) and 0.04 g of -pyridoxine HCl (9). Each solution consisted of the stated amount of co-solute and 3 ml of stock. The following amounts of TR (which was added incrementally (30-40 mg) and heated for 3-4 minutes by heat gun) created the following:
To conduct further testing 0.5 ml of ethanol was added to the solutions with niacin, biotin, thiamine, and salicylic acid. The successful B3 amide solution was split into two solutions of (1.625 and 1.375 ml) with 0.25 ml of ethanol being added to the 1.375 ml solution. The results were as follows:
There was also testing with multiple solutes in 3 ml of stock:
Currently piperazine hexahydrate is being tested as it is another hydrotrope. […] It may work better with other co-solutes or ethanol.

[3] = Increase in solubility of active compounds in the present compositions
Text: It is advantageous to take measures to increase the solubility of an active compound or active compounds within a composition that includes components that serve as excipients such that true solubilization of the compound(s) occurs and the activity of the active compounds are retained upon transition to the vapor phase. The present disclosure is based on the result that the solubility of active compounds can be increased by surprising and unexpected amounts.

[4] = Folate solubility in glycerin/2,3 butane diol stock compositions with co-solutes (incremental addition, heat gun, stirring); conditions: organic solvent or mixture, thermodynamic from solid; stock/water/ethanol solvent
Method: Folate. Folate and biotin are the two most difficult to dissolve B vitamins. Folate solubility enhancement was provided by addition of beta-cyclodextrin.
The solubility enhancement from mannitol/biotin alone was tested next. […] This is major improvement over most polar solvents (0.0016 g/L of water at 25° C.).
First the mannitol/biotin powder was mixed with 0.004 g of folate. This was added to the test tube followed by the liquid. It was stirred vigorously. Then it was heated with a heat gun until clear and no folate was suspended. […] All the liquid was moved to another test tube and the precipitate remained. Then folate was incrementally added (about 1 mg) and the solution was stirred, followed by heating** until it became clear. It would take at least 3 minutes of heating for it to become clear but as more folate was added, at least 4 minutes of heating were needed. This is how the original solution was formed. Over the course of several days there was no further precipitate or increase in viscosity. ** all heating was done with the yellow heat gun on the lowest setting (240° F.)
While heating and stirring the lid popped off and 0.75 ml of solution spilled out. Even accounting for folate lost in the spill, currently at least 8 mg of folate have been dissolved in 2.75 ml and the solution is completely clear. Heating the solution caused the lid to pop so it must be removed after about 1 minute and 30 seconds of heating prior to any further heating. It is also crucial for the solution to have been flipped upside down, preferably while warm. The solution must not be heated while flipped as this may cause a spill.
The original solution still has less much viscosity but also a slightly lower concentration of folate. It appears that somewhere beyond 8 mg folate/[…] of solution it becomes supersaturated, resulting in a thick gel upon settling and cooling. […] As long as supersaturation followed by settling is avoided, the solution will remain liquid. Another option is to study the effect of precipitation inhibitors or the sonicator to further boost solubility without increasing viscosity.
Testing was also done with only stock, stock+water and stock+ethanol but having both water and ethanol is crucial to the process. […] Despite having separated the liquid from the precipitate which was nearly all biotin/mannitol, the powder still played a role in improving folate solubility. […] The following composition (3 ml stock+0.25 ml water+0.25 ml ethanol+0.009 g of biotin) dissolved 11.2 mg of folate but became extremely viscous.
According to research on drug solubility there is a class of molecules known as hydrotropes (also known as chaotropes, […]). They reduce hydrophobic forces between non-polar solutes in polar solvents. One such molecule is niacinamide (vitamin B3 amide). These hydrotropes are planar and are either very polar or have nonpolar and polar sides like surfactants but shorter. This experiment was repeated with niacinamide as a cosolute and with a combination of B3 amide and Biotin. The biotin and B3 amide were added along with 4 mg of folate (and crushed together) wet into dry to the solution. The remaining folate was added incrementally along with heating and stirring. […] (2.5 ml stock+0.5 ml water+0.5 ml ethanol+0.0221 g of B3 amide) dissolved approximately 11 mg of folate and a small amount of precipitate. (2.5 ml stock+0.5 ml water+0.5 ml ethanol+0.0221 g of B3 amide+0.090 g pure biotin) dissolved approximately 11.4 mg of folate without precipitate. Unfortunately both solutions were extremely viscous after a few days.
Eventually the B3 amide and biotin cosolute solution was prepared using “reverse stock” instead of regular with the goal of lowering viscosity. The reverse stock is a solution of 3:7 mol glycerin and 2,3 butane diol. Initially this made folate precipitate so additional glycerin was added to achieve a 1:1 mol ratio of glycerin to 2,3 butane diol.

[5] = 0.693 g L-arginine and 0.693 g l-theanine in 0.75 ml stock, 2.5 ml water, 0.25 ml flavored glycerin

amount of TR added ([2]; 0.000263 mol piperazine.6H2O in 1 ml stock): 0.0731 g | amount of TR dissolved ([2]; 0.0100 g B7+3.5 ml stock+0.5 ml ethanol): 0.2606 g | amount of TR dissolved ([2]; 0.0324 g B3+3.5 ml stock+0.5 ml ethanol): 0.2316 g | TR dissolved per ml ([2]; 0.048175 B3 amide+1.375+0.25 ml ethanol): 0.125 g TR/ml | TR dissolved per ml ([2]; 0.048175 B3 amide+1.625 ml): 0.125 g TR/ml | amount of TR dissolved ([2]; 0.0698 g B1+3.5 ml stock+0.5 ml ethanol): 0.2333 g | amount of TR added ([2]; 3 ml stock + 0.000263 mol caffeine (2)): 0.0131 g | amount of TR added ([2]; 3 ml stock + 0.000263 mol gallic acid (3)): 0.1784 g | amount of TR added ([2]; 3 ml stock + 0.000263 mol niacin (1)): 0.1776 g | amount of TR added ([2]; 3 ml stock + 0.000263 mol niacinamide (6)): 0.1738 g | amount of TR added ([2]; 3 ml stock + 0.000263 mol pantothenic acid (7)): 0.0131 g | amount of TR added ([2]; 3 ml stock + 0.000263 mol salicylic acid (4)): 0.1784 g | amount of TR added ([2]; 3 ml stock + 0.000263 mol thiamine (5)): 0.1808 g | amount of TR added ([2]; 3 ml stock + 0.01 g biotin (8)): 0.1733 g | amount of TR added ([2]; 3 ml stock + 0.04 g pyridoxine HCl (9)): 0.1859 g | appearance of solution ([2]; 3 ml stock + biotin (8), 0.1733 g TR): tiny amount of suspension | appearance of solution ([2]; 3 ml stock + caffeine (2), 0.0131 g TR): immediately precipitated | appearance of solution ([2]; 3 ml stock + niacin (1), 0.1776 g TR): slight visible suspension of particles | appearance of solution ([2]; 3 ml stock + pantothenic acid (7), 0.0131 g TR): cloudy solution without precipitate | amount of TR dissolved ([2]; 3 ml stock, 0.03175 g B3 amide+0.069 g B1+0.006352 g B7, footnote: immediately precipitate): 0.025 g | amount of TR dissolved ([2]; 3 ml stock, 0.0482 g B3 amide+0.03 g B1): 0.1844 g | amount of TR dissolved ([2]; 3 ml stock, 0.0482 g B3 amide+0.09 g B7, footnote: immediately precipitate): 0.025 g | solubility ([2]; glycerin/2,3 butane diol stock (70:30 mol), organic solvent or mixture, thermodynamic from solid, pure stock (70:30 mole glycerin:2,3 butane diol), read-out: solubility in stock): 60 mg/mL | solubility ([2]; organic solvent or mixture, thermodynamic from solid, flavored glycerin (with 2,3 butane diol added) instead of regular stock, read-out: solubility): 45 mg/mL | solubility ([2]; solution 2: 1 ml TR stock solution + 0.175 ml ethanol): 60 mg/mL
Molecule: Oc1ccc(/C=C/c2cc(O)cc(O)c2)cc1 [TR, Trans-resveratrol]
appearance and stability of composition ([1]; 0.2 g trans resveratrol, 0.12 g nicotinamide, 0.08 g ethyl vanillin, 0.06 g cinnamic acid in 3.5 ml stock): clear and flavored solution that became unstable after two weeks and precipitated | appearance of solution after a few days ([2]; 0.000263 mol piperazine.6H2O in 1 ml stock, 0.0731 g TR): the solution became dark and there was a small amount of precipitate | appearance of solution ([2]; 3 ml stock + gallic acid (3), 0.1784 g TR): clearly visible suspension and precipitate on bottom | appearance of solution ([2]; 3 ml stock + niacinamide (6), 0.1738 g TR): totally clear solution with low viscosity | appearance of solution ([2]; 3 ml stock + pyridoxine HCl (9), 0.1859 g TR): clearly visible suspension with precipitate | appearance of solution ([2]; 3 ml stock + salicylic acid (4), 0.1784 g TR): small amount of suspension and precipitate are visible in solution | appearance of solution ([2]; 3 ml stock + thiamine (5), 0.1808 g TR): small amount of suspension and precipitate are visible in solution

appearance of composition [1, 5]: clear and flavored solution
Molecule: CCNC(=O)CC[C@H](N)C(=O)O [l-theanine]

appearance of composition ([1]; 0.335 g noopept, 58 mg cinnamic acid in 2.0 ml stock, 2.0 ml ethanol, 0.1 ml flavored glycerin): clear and flavored solution
Molecule: CCOC(=O)CNC(=O)[C@@H]1CCCN1C(=O)Cc1ccccc1 [noopept] (PhAc-Pro-Gly-OEt)

appearance of composition ([1]; 18 mg riboflavin, 9.26 mg l-arginine in 1.5 ml stock and 2.0 ml of 0.1 mol Na2CO3): clear solution
Molecule: Cc1cc2nc3c(=O)[nH]c(=O)nc-3n(C[C@H](O)[C@H](O)[C@H](O)CO)c2cc1C [riboflavin]

Second part, the molecule before the results:

Molecule: N=C(N)NCCC[C@H](N)C(=O)O [L-arginine]
appearance of composition [1, 5]: clear and flavored solution

Molecule: CC(C)(CO)[C@@H](O)C(=O)NCCC(=O)O [Pantothenic Acid]
appearance of composition ([1]; 0.2 g vitamin B5 in 1.5 ml stock, 2.0 ml fruit flavored vodka, 0.1 ml flavored glycerin): clear and flavored solution

Molecule: C=C1CC[C@H](O)C/C1=C/C=C1\CCC[C@]2(C)[C@@H]([C@H](C)CCCC(C)C)CC[C@@H]12 [Vitamin D3]
increase in solubility ([3]; in the present compositions, D3 with ß-propoxy cyclodextrin): 22,000% | appearance of composition ([1]; 5 mg Vitamin D3, 15 mg βcyclodextrin, 15 mg cinnamic acid, 15 mg ethyl vanillin in 2.5 ml stock+1.0 ml water, heated at 175° C.): clear solution with flavor

Molecule: O=C(O)CCCC[C@@H]1SC[C@@H]2NC(=O)N[C@@H]21 [biotin]
increase in solubility [3]: comparable increases | solubility [4]: ~3 mg/mL

Molecule: cyanocobalamin [B12]
increase in solubility [3]: 600% | concentration of final translucent solution ([1]; water, 70% glycerin/30% 2,3 butane diol (v/v), 0.01M NaOH, 95% EtOH, room temperature): ~0.21 M
